The text below walks through data of US9822373B2, “Mutant cells for protein secretion and lignocellulose degradation” (The Regents of the University of California, priority 2011, dated 2017).

Structures are written as SMILES.

For assay [1], the system named is Exoglucanase (Cellobiohydrolase I). The assay can be described thus: MuLac (4-Methylumbelliferyl β-D-cellobioside) exoglucanase activity of culture supernatant. Type of assay: cell-based, Neurospora crassa. The conditions noted are these: for MuLac activity: triple β-glucosidase deletion. The protocol: Strains were inoculated at an OD595 equal to 0.05 in 100 ml Vogel's salts with 1% (wt/vol) sucrose in a 250 ml Erlenmeyer flask and grown under constant light at 200 rpm for 24 hours. Cultures were then induced with 2% sucrose, 2% cellobiose, 1% sucrose/1% cellobiose, or 1% sucrose/1% Avicel®. Cultures continued to grow under constant light at 200 rpm for 5 days with supernatant collected at 1, 2, 3, 4 and 5 day. The collected supernatant was filtered through a 0.2 μm PES filter to remove biomass before being stored at −20° C. until all samples were collected. To visualize the secreted proteins, 15 μl of unconcentrated supernatant was run on a Criterion 10% Tris-HCL polyacrylamide gel and stained with Thermo Scientific GelCode Blue Stain Reagent.
Exoglucanase (Cellobiohydrolase I) activity was measured using a 4-Methylumbelliferyl β-D-cellobioside (MuLac) assay. This assay mainly measures the activity of CBH-1 and activity is expressed as the change in fluorescence over time resulting in the slope of a best-fit line as an indication of enzyme activity. Prior to performing this assay, any excess sugars in the culture supernatant were removed by passing the supernatant over a 5,000 Dalton concentrator (sartorius stedim Vivaspin 500). Retained proteins were washed twice with 50 mM sodium acetate pH 5 and diluted to 2 μg/μl to assure that the assay remained in the linear range. […] The assay was performed in a Beckman Coulter Paradigm plate reader set at 40° C. with excitation/emission wavelengths of 360/465 nm with readings every 30 seconds for 10 minutes. The slope of the best-fit line represents the MuLac activity for an individual culture supernatant. The MuLac activity is normalized to the initial dilution required to obtain a 2 μg/μl concentration in order to represent the undiluted activity. The activity of recombinant cellobiohydrolase-1 was used as a standard and data is presented as a percentage of the wild type activity on Avicel® after 4 days.

In assay [2] the test system is endoglucanase 2 (eg-2 / gh5-1, NCU00762). As to the kind of experiment: Quantitative RT-PCR of eg-2/gh5-1 expression after 4 h induction with a carbon source. The format is cell-based, Neurospora crassa. Here is the method:
Strains were inoculated at an OD595 equal to 0.05 in 50 ml Vogel's salts with 2% (wt/vol) sucrose in a 250 ml Erlenmeyer flask and grown under constant light at 200 rpm for 16 hours. The biomass was then spun at 4000 rpm for 10 minutes and washed in Vogel's twice to remove any excess sucrose. The biomass was then added to a new 50 ml culture with 2% (wt/vol) sucrose, cellobiose (Sigma) or Avicel® PH 101 (Avicel®). Cultures were induced for 4 hours under constant light at 200 rpm. The culture biomass was then harvested by filtration over a Whatman glass microfiber filter (GF/F) on a Buchner funnel and washed with 50 ml Vogel's, biomass was flash frozen in liquid Nitrogen and stored at −80° C.
Total RNA from frozen samples was isolated using Zirconia/Silica beads (0.2 g, 0.5 mm diameter; Biospec) and a Mini-Beadbeater-96 (Biospec) with 1 mL TRIzol reagent (Invitrogen) according to manufacturer's instructions. Total RNA was further purified by digestion with TURBO DNA-free (Ambion) and an RNeasy kit (Qiagen). RNA integrity was checked by Nanodrop and agarose gel electrophoresis.
Quantitative RT-PCR was performed using the EXPRESS One-Step SYBR GreenER Kit (Invitrogen) and the StepOnePlus Real-Time PCR System (Applied Biosystems). Reactions were performed in triplicate with a total reaction volume of 10 ul including 300 nM each forward and reverse primers and 75 ng template RNA. Data Analysis was performed by the StepOne Software (Applied Biosystems) using Relative Quantitation/Comparative CT (ΔΔCT). Data was normalized to the endogenous control actin with expression on sucrose as the reference sample. Error bars indicate a 95% confidence interval. The RT-PCR primers were used as described in (Tian et al., 2009).
Conidia from strains were inoculated at an OD595 equal to 0.05 in 50 ml Vogel's salts (45) with 2% w/v sucrose in a 250 ml Erlenmeyer flask and grown under constant light at 200 rpm for 16 hours. Biomass was then spun at 4200 rpm for 10 minutes and washed in Vogel's salts twice to remove any excess sucrose. Biomass was then added to a new flask containing 50 ml Vogel's salts supplemented with 1% w/v sucrose, 0.2% w/v cellobiose (Sigma) or 1% w/v Avicel® PH 101 (Sigma). Cultures were induced for 4 hrs under constant light at 200 rpm. The culture biomass was then harvested by filtration over a Whatman glass microfiber filter (GF/F) on a Buchner funnel and washed with 50 ml Vogel's salts. […] Three independent biological duplicates (flasks) were evaluated for each time point. […]
Quantitative RT-PCR was performed using the EXPRESS One-Step SYBR GreenER Kit (Invitrogen) and the StepOnePlus Real-Time PCR System (Applied Biosystems). […] Data Analysis was performed by the StepOne Software (Applied Biosystems) using the Relative Quantitation/Comparative CT (ΔΔCT) setting. […]

Consider `O=C[C@H](O)[C@@H](O)[C@H](O[C@@H]1O[C@H](CO)[C@@H](O)[C@H](O)[C@H]1O)[C@H](O)CO` [cellobiose], for which the MuLac activity in assay [1] (4 days) stood at 4.84 μg CBHI equivalent; in assay [1] (two days), 1.4 μg recombinant CBHI. For the same compound, the “MuLac activity (CBHI equivalent produced)” value in assay [1] (triple β-glucosidase/Δcre-1 deletion strain, four days) is given as “more than 11 μg CBHI equivalent”. Moreover, the “activity towards MuLac” value in assay [1] (Δcre-1, time not stated) came out at 0.8 µg. The “eg-2 relative expression compared to sucrose” value in assay [2] (WT strain, 2% carbon source, 4 h induction) is on record as “no change”. In addition, in assay [2] (triple β-glucosidase mutant, 2% carbon source, 4 h induction), the “eg-2 increase in relative expression over expression on sucrose” value is reported as 2,200 fold. Moreover, in assay [2] (Δcre-1 strain, 4 h induction (Example 1)), the “increase in transcription of eg-2 above expression on sucrose in the same strain” value turned out to be 80 fold. The “induction of gh5-1” value in assay [2] (Δcre-1 strain, shifted from sucrose to 0.2% cellobiose for 4 hrs) came out at 500 fold.
